{
  "source": "patent US20260297060A1",
  "about": "“COMPOUNDS FOR THE DEGRADATION OF MUTANT BRAF” (C4 THERAPEUTICS, INC., priority 2023, published 2026)",
  "assay": "Pharmacokinetics in female BALB/c nude mice bearing A375 xenografts, 1 day dosing (PK and PD study): plasma, tumor and brain concentrations, AUC",
  "format": "in vivo",
  "settings": "mouse, po",
  "source_text": "The concentrations of Dabrafenib, Compound 26 and Compound 141 in the treatment of female BALB/c nude mice bearing A375 xenografts are shown in Table 62-Table 72 and FIG. 52-FIG. 73.",
  "key": {"[1]": {"settings": "plasma, 3 mg/kg, 3 mg/kg p.o. BID × 1 day, post 1st dose, read-out: Mean Concentration in Plasma ± SEM"}, "[2]": {"settings": "plasma, 3 mg/kg, 3 mg/kg p.o. BID × 1 day, post 2nd dose, read-out: Mean Concentration in Plasma ± SEM"}, "[3]": {"settings": "plasma, 6 mg/kg, 6 mg/kg p.o. QD × 1 day, read-out: Mean Concentration in Plasma ± SEM"}, "[4]": {"settings": "plasma, 10 mg/kg, 10 mg/kg p.o. BID × 1 day, post 1st dose, read-out: Mean Concentration in Plasma ± SEM"}, "[5]": {"settings": "plasma, 10 mg/kg, 10 mg/kg p.o. BID × 1 day, post 2nd dose, read-out: Mean Concentration in Plasma ± SEM"}, "[6]": {"settings": "tumor, 1.5 mg/kg, 1.5 mg/kg p.o. BID × 1 day, post 2nd dose, read-out: Mean Concentration in Tumor ± SEM"}, "[7]": {"settings": "tumor, 2 mg/kg, 2 mg/kg p.o. TID × 1 day, post 3rd dose, read-out: Mean Concentration in Tumor ± SEM"}, "[8]": {"settings": "tumor, 3 mg/kg, 3 mg/kg p.o. BID × 1 day, post 2nd dose, read-out: Mean Concentration in Tumor ± SEM"}, "[9]": {"settings": "tumor, 6 mg/kg, 6 mg/kg p.o. QD × 1 day, read-out: Mean Concentration in Tumor ± SEM"}, "[10]": {"settings": "tumor, 10 mg/kg, 10 mg/kg p.o. BID × 1 day, post 2nd dose, read-out: Mean Concentration in Tumor ± SEM"}},
  "note": "Read-outs that look alike come from different tables or passages of the source.",
  "data": [
    {"compound": "CCN(C)S(=O)(=O)Nc1ccc(F)c(Oc2ccc3ncn([C@H]4COC5(CCN(C6CC7(C6)CN(c6cc8c(cc6F)c(N6CCC(=O)NC6=O)nn8C)C7)CC5)C4)c(=O)c3c2)c1C#N", "note": "[Compound 26, (3R)-3-[6-[2-cyano-3-[[ethyl(methyl)sulfamoyl]amino]-6-fluoro-phenoxy]-4-oxo-quinazolin-3-yl]-8-[2-[3-(2,4-dioxohexahydropyrimidin-1-yl)-5-fluoro-1-methyl-indazol-6-yl]-2-azaspiro[3.3]heptan-6-yl]-1-oxa-8-azaspiro[4.5]decane]", "values": [
      {"measurement": "concentration at 4 h", "setting": "[1]", "result": "3060 ± 172", "unit": "ng/mL"},
      {"measurement": "concentration at 8 h", "setting": "[1]", "result": "645 ± 24.7", "unit": "ng/mL"},
      {"measurement": "concentration at 12 h", "setting": "[1]", "result": "527 ± 130", "unit": "ng/mL"},
      {"measurement": "concentration at 0.25 h", "setting": "[2]", "result": "1380 ± 113", "unit": "ng/mL"},
      {"measurement": "concentration at 0.5 h", "setting": "[2]", "result": "2880 ± 325", "unit": "ng/mL"},
      {"measurement": "concentration at 1 h", "setting": "[2]", "result": "4920 ± 1060", "unit": "ng/mL"},
      {"measurement": "concentration at 2 h", "setting": "[2]", "result": "5290 ± 1110", "unit": "ng/mL"},
      {"measurement": "concentration at 4 h", "setting": "[2]", "result": "2590 ± 422", "unit": "ng/mL"},
      {"measurement": "concentration at 10 h", "setting": "[2]", "result": "1500 ± 194", "unit": "ng/mL"},
      {"measurement": "concentration at 24 h", "setting": "[2]", "result": "20.5 ± 4.61", "unit": "ng/mL"},
      {"measurement": "concentration at 36 h", "setting": "[2]", "result": 1.58, "unit": "ng/mL"},
      {"measurement": "concentration at 48 h", "setting": "[2]", "result": "0.968 ± 0.0751", "unit": "ng/mL"},
      {"measurement": "concentration at 0.25 h", "setting": "[3]", "result": "3250 ± 159", "unit": "ng/mL"},
      {"measurement": "concentration at 0.5 h", "setting": "[3]", "result": "7680 ± 353", "unit": "ng/mL"},
      {"measurement": "concentration at 1 h", "setting": "[3]", "result": "15200 ± 186", "unit": "ng/mL"},
      {"measurement": "concentration at 2 h", "setting": "[3]", "result": "11600 ± 1450", "unit": "ng/mL"},
      {"measurement": "concentration at 4 h", "setting": "[3]", "result": "6670 ± 1110", "unit": "ng/mL"},
      {"measurement": "concentration at 8 h", "setting": "[3]", "result": "5720 ± 1940", "unit": "ng/mL"},
      {"measurement": "concentration at 10 h", "setting": "[3]", "result": "3110 ± 682", "unit": "ng/mL"},
      {"measurement": "concentration at 24 h", "setting": "[3]", "result": "185 ± 109", "unit": "ng/mL"},
      {"measurement": "concentration at 36 h", "setting": "[3]", "result": "3.87 ± 0.735", "unit": "ng/mL"},
      {"measurement": "concentration at 48 h", "setting": "[3]", "result": 1.07, "unit": "ng/mL"},
      {"measurement": "concentration at 0.25 h", "setting": "[4]", "result": "7140 ± 1960", "unit": "ng/mL"},
      {"measurement": "concentration at 0.5 h", "setting": "[4]", "result": "17400 ± 1470", "unit": "ng/mL"},
      {"measurement": "concentration at 1 h", "setting": "[4]", "result": "25400 ± 10500", "unit": "ng/mL"},
      {"measurement": "concentration at 2 h", "setting": "[4]", "result": "18800 ± 3020", "unit": "ng/mL"},
      {"measurement": "concentration at 4 h", "setting": "[4]", "result": "7890 ± 2010", "unit": "ng/mL"},
      {"measurement": "concentration at 8 h", "setting": "[4]", "result": "2920 ± 468", "unit": "ng/mL"},
      {"measurement": "concentration at 12 h", "setting": "[4]", "result": "964 ± 248", "unit": "ng/mL"},
      {"measurement": "concentration at 0.25 h", "setting": "[5]", "result": "6220 ± 623", "unit": "ng/mL"},
      {"measurement": "concentration at 0.5 h", "setting": "[5]", "result": "12800 ± 1590", "unit": "ng/mL"},
      {"measurement": "concentration at 1 h", "setting": "[5]", "result": "27000 ± 3530", "unit": "ng/mL"},
      {"measurement": "concentration at 2 h", "setting": "[5]", "result": "20200 ± 1540", "unit": "ng/mL"},
      {"measurement": "concentration at 4 h", "setting": "[5]", "result": "17100 ± 3470", "unit": "ng/mL"},
      {"measurement": "concentration at 10 h", "setting": "[5]", "result": "4640 ± 318", "unit": "ng/mL"},
      {"measurement": "concentration at 24 h", "setting": "[5]", "result": "143 ± 29.1", "unit": "ng/mL"},
      {"measurement": "concentration at 36 h", "setting": "[5]", "result": "10.7 ± 2.46", "unit": "ng/mL"},
      {"measurement": "concentration at 48 h", "setting": "[5]", "result": "10.6 ± 9.23", "unit": "ng/mL"},
      {"measurement": "AUC at 24 h", "setting": "plasma, 1.5 mg/kg p.o. BID × 1 day, read-out: Plasma AUC at 24 hours, Average", "result": 27600, "unit": "ng·h/mL"},
      {"measurement": "AUC at 24 h", "setting": "plasma, 2 mg/kg p.o. TID × 1 day, read-out: Plasma AUC at 24 hours, Average", "result": 41800, "unit": "ng·h/mL"},
      {"measurement": "AUC at 24 h", "setting": "plasma, 3 mg/kg p.o. BID × 1 day, read-out: Plasma AUC at 24 hours, Average", "result": 60200, "unit": "ng·h/mL"},
      {"measurement": "AUC at 24 h", "setting": "plasma, 6 mg/kg p.o. QD × 1 day, read-out: Plasma AUC at 24 hours, Average", "result": 85100, "unit": "ng·h/mL"},
      {"measurement": "AUC at 24 h", "setting": "plasma, 10 mg/kg p.o. BID × 1 day, read-out: Plasma AUC at 24 hours, Average", "result": 224000, "unit": "ng·h/mL"},
      {"measurement": "concentration at 1 h", "setting": "[6]", "result": "164 ± 31.1", "unit": "ng/g"},
      {"measurement": "concentration at 4 h", "setting": "[6]", "result": "552 ± 24.7", "unit": "ng/g"},
      {"measurement": "concentration at 10 h", "setting": "[6]", "result": "246 ± 46.4", "unit": "ng/g"},
      {"measurement": "concentration at 24 h", "setting": "[6]", "result": "28.3 ± 21.8", "unit": "ng/g"},
      {"measurement": "concentration at 48 h", "setting": "[6]", "result": 5.63, "unit": "ng/g"},
      {"measurement": "concentration at 1 h", "setting": "[7]", "result": "617 ± 49.7", "unit": "ng/g"},
      {"measurement": "concentration at 4 h", "setting": "[7]", "result": "905 ± 48.2", "unit": "ng/g"},
      {"measurement": "concentration at 10 h", "setting": "[7]", "result": "667 ± 154", "unit": "ng/g"},
      {"measurement": "concentration at 24 h", "setting": "[7]", "result": "12 ± 2.59", "unit": "ng/g"},
      {"measurement": "concentration at 0.25 h", "setting": "[8]", "result": "197 ± 15.3", "unit": "ng/g"},
      {"measurement": "concentration at 0.5 h", "setting": "[8]", "result": "289 ± 31.1", "unit": "ng/g"},
      {"measurement": "concentration at 1 h", "setting": "[8]", "result": "581 ± 107", "unit": "ng/g"},
      {"measurement": "concentration at 2 h", "setting": "[8]", "result": "1230 ± 452", "unit": "ng/g"},
      {"measurement": "concentration at 4 h", "setting": "[8]", "result": "1060 ± 233", "unit": "ng/g"},
      {"measurement": "concentration at 10 h", "setting": "[8]", "result": "630 ± 39.9", "unit": "ng/g"},
      {"measurement": "concentration at 24 h", "setting": "[8]", "result": "24.7 ± 7.5", "unit": "ng/g"},
      {"measurement": "concentration at 48 h", "setting": "[8]", "result": 7.94, "unit": "ng/g"},
      {"measurement": "concentration at 1 h", "setting": "[9]", "result": "882 ± 157", "unit": "ng/g"},
      {"measurement": "concentration at 4 h", "setting": "[9]", "result": "2070 ± 259", "unit": "ng/g"},
      {"measurement": "concentration at 10 h", "setting": "[9]", "result": "1320 ± 333", "unit": "ng/g"},
      {"measurement": "concentration at 24 h", "setting": "[9]", "result": "89.1 ± 25.7", "unit": "ng/g"},
      {"measurement": "concentration at 48 h", "setting": "[9]", "result": 24.2, "unit": "ng/g"},
      {"measurement": "concentration at 1 h", "setting": "[10]", "result": "3500 ± 219", "unit": "ng/g"},
      {"measurement": "concentration at 4 h", "setting": "[10]", "result": "4160 ± 413", "unit": "ng/g"},
      {"measurement": "concentration at 10 h", "setting": "[10]", "result": "2060 ± 207", "unit": "ng/g"},
      {"measurement": "concentration at 24 h", "setting": "[10]", "result": "624 ± 438", "unit": "ng/g"},
      {"measurement": "concentration at 48 h", "setting": "[10]", "result": 81.6, "unit": "ng/g"},
      {"measurement": "AUC at 24 h", "setting": "tumor, 1.5 mg/kg p.o. BID × 1 day, read-out: Tumor AUC at 24 hours, Average", "result": 5750, "unit": "ng·h/mL"},
      {"measurement": "AUC at 24 h", "setting": "tumor, 2 mg/kg p.o. TID × 1 day, read-out: Tumor AUC at 24 hours, Average", "result": 11900, "unit": "ng·h/mL"},
      {"measurement": "AUC at 24 h", "setting": "tumor, 3 mg/kg p.o. BID × 1 day, read-out: Tumor AUC at 24 hours, Average", "result": 13300, "unit": "ng·h/mL"},
      {"measurement": "AUC at 24 h", "setting": "tumor, 6 mg/kg p.o. QD × 1 day, read-out: Tumor AUC at 24 hours, Average", "result": 25800, "unit": "ng·h/mL"},
      {"measurement": "AUC at 24 h", "setting": "tumor, 10 mg/kg p.o. BID × 1 day, read-out: Tumor AUC at 24 hours, Average", "result": 56700, "unit": "ng·h/mL"}
    ]}
  ]
}
